Measured values from patent US20060069079A1, “Stable amorphous cefdinir” (priority 2004, published 2006).

How the values were obtained:
Assay type in all cases: physicochemical
[1] = Physical stability of the amorphous material isolated by evaporating a methanolic solution
Description: Amorphous Cefdinir was isolated by evaporating a methanolic solution.
Stable amorphous Cefdinir with Eudragit EPO was made and isolated by evaporating a methanolic solution.
Amorphous cefdinir with PVP was made and isolated by evaporating a methanolic solution.

[2] = HPLC potency of the isolated amorphous material, before and after drying
Protocol: For High Pressure Liquid Chromatography (HPLC), the sample isolated by evaporating methanol was analyzed by HPLC for potency. […] By careful drying at lower temperatures, the potency loss could be alleviated.
For the HPLC analysis, the sample isolated by evaporating methanol was analyzed by HPLC for potency. […] When the sample was re-analyzed after drying in the TGA at 25° C. or 70° C., the potency remained at 99 wt %. Therefore, the presence of Eudragit EPO improved the stability of the amorphous phase.

[3] = Thermogravimetric analysis (TGA), onset of degradation on heating; details: heated at 10° C./min from 25° C.
Protocol: Thermogravimetric analysis (TGA) was performed in TA Instruments TG2950 (TA Instruments, New Castle, Del.). The samples were scanned at 10° C./minute with a dry nitrogen purge at 60 mL/minute.
For TGA analysis, the sample was heated at 10° C./min from 25° C. to 150° C. The air dried amorphous material contained about 5 wt % residual solvent. Since the TGA data also indicated degradation begins at 90° C., the residual solvent can be removed by holding the sample in the TGA for 1 hour at 25° C. (FIG. 5). At the end of the hour, the weight reached a constant value and the sample had lost 5% of its weight.
For the TGA analysis, the sample was heated at 10° C./min from 25° C. to 150° C. The air dried amorphous material contained some (˜10 wt %) residual methanol (FIG. 10). […] (FIG. 11). At the end of the hour, the weight reached a constant value and the sample had lost 10% of its weight.
For the TGA analysis, the sample was heated at 10° C./min from 25° C. to 200° C. The air dried amorphous material contained some (˜7 wt %) residual methanol. […] (FIG. 16). At the end of the hour, the weight reached a constant value and the sample had lost 7% of its weight.

In the case of `C=CC1=C(C(=O)O)N2C(=O)C(NC(=O)C(=NO)c3csc(N)n3)[C@H]2SC1` (single isomer, unassigned) [Amorphous Cefdinir, 7-[2-(2-aminothiazol-4-yl)-2-hydroxyiminoacetamide]-3-vinyl-3-cephem-4-carboxylic acid (syn isomer)], the physical stability [1] is reported as “physically stable”, the “potency by HPLC after drying” value ([2]; reanalyzed after drying in the TGA at 25° C. or 70° C.) is reported as 93% and the “potency by HPLC” value ([2]; sample isolated by evaporating methanol, after accounting for residual solvent) is reported as 98%. The “temperature at which degradation begins (TGA)” value [3] was 90 °C.
